Measurements reported in EP2284178A2, “Inhibitors of cancer cell, T-cell and keratinocyte proliferation” (4SC AG, priority 2005, dated 2007).

Molecular target: T1, human Proteasome (Homo sapiens, UniProt P28074)
T1 construct: purchased Immatics, Tübingen
Assay: chymotryptic activity of the 20S proteasome (Suc-LLVT-AMC substrate, fluorescence)
Format: biochemical
Conditions: for human Proteasome IC50: result given in words
Method: The chymotryptic activity of the 20S proteasome (Immatics, Tübingen) was determined using a Tecan Ultra plate reader and Suc-LLVT-AMC as substrate (Bachem). In the wells of a black 96 well polypropylene plate, 2 µl of the respective inhibitor dissolved in DMSO were mixed with 50 µl substrate solution (25 mM HEPES pH 7.5 at 20°C, 0.5 mM EDTA and Suc-LLVT-AMC (in the appropriate concentration) and the reaction was initiated by adding 150 µl proteasome solution (1.3 µg/ml 20S proteasome in 25 mM HEPES pH 7.5 at 20°C, 0.5 mM EDTA, 0.033% (w/v) SDS). Substrate hydrolysis was followed by fluorescence spectroscopy (excitation wavelength: 360 nm; emission wavelength: 465 nm) for 20 min at 30°C and initial velocities were calculated and expressed as change in relative fluorescence units (RFU) per second.

Row | Compound | human Proteasome IC50 | IC50 (unit printed as µm) [µM]
1 | CC(C)(C)OC(=O)NC(Cc1ccc(Br)cc1)C(=O)NC(Cc1ccc2ccccc2c1)C(=O)NC(C=NN1CC(=O)NC1=O)Cc1ccccc1 (stereo not drawn) [Compound 7] | nanomolar | –
2 | O=C1CN(N=CC(Cc2ccccc2)NC(=O)C(Cc2ccc3ccccc3c2)NC(=O)C(Cc2ccc(F)cc2)NC(=O)OCc2ccccc2)C(=O)N1 (stereo not drawn) [Compound 9] | nanomolar | –
3 | O=C1CN(/N=C/C(Cc2ccccc2)NC(=O)c2csc(-c3ccc4c(c3)CCO4)n2)C(=O)N1 (stereo not drawn) [Compound 10] | – | 3.5
